Where a SMILES comes first, the peptide text is derived from it. [ ]: non-standard residue; d: D form. Aoe = N[C@@H](CCCCCC(=O)[C@@H]1CO1)C(=O)O
System: J77 cells
Test: CD3 clustering in the central region of the immunological synapse
Type: cell-based, human
Details: J77 cells, relative to cells transfected with the deficient mutant or lymphocytes treated with TSA; Figure 5B

Compound	percentage of mature synapses
CCCC(=O)[O-].[Na+] [sodium butyrate]	neither trapoxin B nor sodium butyrate modified it in a significant manner
O=C1N[C@@H](Cc2ccccc2)C(=O)N2CCC[C@@H]2C(=O)N[C@@H](CCCCCC(=O)[C@@H]2CO2)C(=O)N[C@H]1Cc1ccccc1 [trapoxin B] (cyclo(FF[dP][Aoe]))	neither trapoxin B nor sodium butyrate modified it in a significant manner

From patent EP1707622A1, “USE OF COMPOUNDS THAT REGULATE HDAC6 TUBULIN DEACETYLASE ACTIVITY IN THE PREPARATION OF PHARMACEUTICAL COMPOSITIONS, METHOD OF IDENTIFYING THE AFOR[…], SAID PHARMACEUTICAL COMPOUNDS AND APPLICATIONS THEREOF” (UNIVERSIDAD AUTONOMA DE MADRID CIUDAD UNIVERSITARIA …, priority 2004, dated 2005)
